Experimental data taken from the supplement of paper PMC10920090.

Tests used:
[1] = test system: MDA-MB-231; assay: drug sensitivity score (DSS), cytotoxicity CellTox Green; higher = more cytotoxic; extreme values may be limits of the assay; conditions: 72 h
[2] = test system: MDA-MB-231; assay: drug sensitivity score (DSS), cell viability CellTiter-Glo; higher = more sensitive; extreme values may be limits of the assay; conditions: 72 h
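For drug sensitivity score (DSS), cytotoxicity CellTox Green in this document: DSS summarises each dose–response curve by combining IC50, EC50, maximal inhibition and efficacy across drug concentrations.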

Row | SMILES | drug sensitivity score ([1]; shRNA: shPPFIA1_1) [DSS] | drug sensitivity score ([1]; shRNA: shScramble) [DSS] | drug sensitivity score ([2]; shRNA: shPPFIA1_1) [DSS] | drug sensitivity score ([2]; shRNA: shScramble) [DSS]
1 | COc1cc2c(Oc3ccc4[nH]c(C)cc4c3F)ncnc2cc1OCCCN1CCCC1 [Cediranib] | 0 | 0 | 7 | 7.5
2 | O=C(O)C(=O)O.[NH-][C@@H]1CCCC[C@H]1[NH-].[Pt+2] [Oxaliplatin] | 0 | 0 | 0 | 2
3 | CCN1CCN(c2ccc(Nc3cc(N(C)C(=O)Nc4c(Cl)c(OC)cc(OC)c4Cl)ncn3)cc2)CC1 [NVP-BGJ398] | 0 | 0 | 0 | 0
4 | CCCCCCCCCCCCCCCCCCOP(=O)([O-])OC1CC[N+](C)(C)CC1 [Perifosine] | 0.9 | 0 | 0 | 0.9
5 | CC(C)(C)Cn1c(N)nc2ccc(-c3[nH]c(C(C)(C)C)nc3-c3ccc(F)cc3)nc21 [Ralimetinib] | 0 | 0 | 0.2 | 0
6 | Clc1ccc(C(c2ccccc2Cl)C(Cl)Cl)cc1 (configuration not stated) [Mitotane] | 0 | 0 | 0 | 0
7 | FC(F)(F)c1ccc(CNc2ccc(Cc3c[nH]c4ncc(Cl)cc34)cn2)cn1 [Pexidartinib] | 0 | 0 | 0 | 0
8 | C[C@]1(O)C[C@@H](c2nc(-c3ccc4ccc(-c5ccccc5)nc4c3)c3c(N)nccn32)C1 [Linsitinib] | 0 | 0 | 0 | 0
9 | COc1cc(Nc2ncc(F)c(Nc3ccc4c(n3)N(COP(=O)(O)O)C(=O)C(C)(C)O4)n2)cc(OC)c1OC [Fostamatinib] | 1.6 | 0.8 | 1 | 5.3
10 | Cc1cnc(Nc2ccc(OCCN3CCCC3)cc2)nc1Nc1cccc(S(=O)(=O)NC(C)(C)C)c1 [Fedratinib] | 2.2 | 5.7 | 1.9 | 9.2
11 | C/C(=C\c1csc(C)n1)[C@@H]1C[C@@H]2O[C@]2(C)CCC[C@H](C)[C@H](O)[C@@H](C)C(=O)C(C)(C)[C@@H](O)CC(=O)N1 [Ixabepilone] | 3.8 | 3.1 | 0 | 5
12 | Cn1c(Nc2ccc(C(F)(F)F)cc2)nc2cc(Oc3ccnc(-c4ncc(C(F)(F)F)[nH]4)c3)ccc21 [RAF265] | 0 | 1.6 | 0 | 1.8
13 | Nc1ncn([C@H]2C[C@H](O)[C@@H](CO)O2)c(=O)n1 [Decitabine] | 0 | 0 | 0.9 | 1
14 | CC[C@]1(O)C[C@@H]2CN(CCc3c([nH]c4ccccc34)[C@@](C(=O)OC)(c3cc4c(cc3OC)N(C)[C@H]3[C@@](O)(C(=O)OC)[C@H](OC(C)=O)[C@]5(CC)C=CCN6CC[C@]43[C@@H]65)C2)C1 [Vinblastine] | 9 | 9.2 | 0 | 9.6
15 | Nc1nc2[nH]cc(CCc3ccc(C(=O)N[C@@H](CCC(=O)O)C(=O)O)cc3)c2c(=O)[nH]1 [Pemetrexed] | 0 | 0 | 5.6 | 8.3
16 | CCC1(c2ccc(N)cc2)CCC(=O)NC1=O (configuration not stated) [Aminoglutethimide] | 0 | 0 | 0 | 0
17 | CC[C@H](CC#N)OC(=O)N[C@@H](C)c1cccc(NC(=O)Nc2ccc(-c3cnco3)c(OC)c2)c1 [AVN944] | 0 | 0 | 0 | 5.4
18 | Oc1ncc(N(CCCl)CCCl)c(O)n1 [Uramustine] | 0 | 0 | 0 | 0
19 | NS(=O)(=O)OC[C@@H]1C[C@@H](n2ccc3c(N[C@H]4CCc5ccccc54)ncnc32)C[C@@H]1O [Pevonedistat] | 7.6 | 7 | 16.9 | 10.6
20 | N#Cc1ccc(C(c2ccc(C#N)cc2)n2cncn2)cc1 [Letrozole] | 0 | 0 | 0 | 0
21 | CCn1nnc2c(N3CCOCC3)nc(-c3ccc(NC(=O)Nc4ccc(C(=O)N5CCN(C)CC5)cc4)cc3)nc21 [PKI-402] | 0 | 0 | 1.1 | 9.4

Row | SMILES | drug sensitivity score ([1]; shRNA: shPPFIA1_1) [DSS] | drug sensitivity score ([1]; shRNA: shScramble) [DSS] | drug sensitivity score ([2]; shRNA: shPPFIA1_1) [DSS] | drug sensitivity score ([2]; shRNA: shScramble) [DSS]
22 | COC[C@H](NC(=O)c1cnc(C)s1)C(=O)N[C@@H](COC)C(=O)N[C@@H](Cc1ccccc1)C(=O)[C@@]1(C)CO1 [Oprozomib] | 17 | 16.8 | 11.4 | 11.5
23 | Cn1ncc(Cl)c1-c1cc(C(=O)N[C@H](CN)Cc2cccc(F)c2)sc1Cl [Afuresertib] | 0 | 0 | 0.5 | 1.6
24 | O=C(O)c1ccc(Nc2ncc3c(n2)-c2ccc(Cl)cc2C(c2c(F)cccc2F)=NC3)cc1 [MLN-8054] | 0 | 0 | 0.1 | 2.2
25 | CNC(=O)c1ccc(C)c(-n2c(C)cc(OCc3ccc(F)cc3F)c(Br)c2=O)c1 | 0 | 0 | 0 | 0
26 | CCc1cncnc1N1CCN(Cc2nc3ccc(C(F)(F)F)cc3[nH]2)CC1 | 0.6 | 0 | 0 | 1.3
27 | Cc1cn(-c2cc(NC(=O)c3ccc(C)c(Nc4nccc(-c5cccnc5)n4)c3)cc(C(F)(F)F)c2)cn1 [Nilotinib] | 4.5 | 0.2 | 0 | 3.8
28 | C=CCc1cccc(/C=N/NC(=O)CN2CCN(Cc3ccccc3)CC2)c1O [PAC-1] | 0 | 0 | 2.7 | 3.8
29 | CC(C)n1nc(-c2ccc3oc(N)nc3c2)c2c(N)ncnc21 [MLN-0128] | 0 | 0 | 0.2 | 5
30 | Cc1c(F)cc(C(=O)NC2CC2)cc1-c1ccc(C(=O)NCC(C)(C)C)cn1 [Losmapimod] | 0 | 0 | 1.7 | 0
31 | Cc1ccc2nc(CN(CCN(Cc3nc4ccc(C)cc4[nH]3)Cc3nc4ccc(C)cc4[nH]3)Cc3nc4ccc(C)cc4[nH]3)[nH]c2c1 | 6.8 | 1.9 | 0.6 | 2.6
32 | CC(C)[C@@H](CS(=O)(=O)C(C)C)N1C(=O)[C@@](C)(CC(=O)O)C[C@H](c2cccc(Cl)c2)[C@H]1c1ccc(Cl)cc1 [AMG-232] | 12.7 | 0 | 0 | 0
33 | NC1(c2ccc(-c3nc4ccn5c(=O)[nH]nc5c4cc3-c3ccccc3)cc2)CCC1 [MK-2206] | 0 | 0 | 6.5 | 6.8
34 | CS(=O)(=O)c1ccc(-c2cnc(N)c(C(=O)Nc3ccccc3)n2)cc1 [VE-821] | 0 | 0 | 0 | 0
35 | CCNc1nc(Nc2cc(F)c(C(=O)N3CCOCC3)cc2OC)ncc1C(F)(F)F [GNE-7915] | 0 | 0 | 0 | 0
36 | COc1cc2c(Oc3ccc(NC(=O)C4(C(=O)Nc5ccc(F)cc5)CC4)cc3F)ccnc2cc1OCCCN1CCOCC1 [Foretinib] | 0 | 0 | 0 | 2.2
37 | COc1cc2nccc(Oc3ccc(NC(=O)Nc4cc(C)on4)c(Cl)c3)c2cc1OC [Tivozanib] | 3.3 | 0 | 0 | 1.9
38 | C[C@@H]1CN(Cc2ccc(F)cc2)[C@@H](C)CN1C(=O)c1cc2c(C(=O)C(=O)N(C)C)cn(C)c2cc1Cl [Talmapimod] | 0 | 0 | 0 | 0
39 | N#CCNC(=O)c1ccc(-c2ccnc(Nc3ccc(N4CCOCC4)cc3)n2)cc1 [Momelotinib] | 0 | 0 | 0 | 0
40 | CCC/C=C/C=C/C(=O)O[C@H]1/C(=C/C(=O)OC)C[C@H]2C[C@H]([C@@H](C)O)OC(=O)C[C@H](O)C[C@@H]3C[C@H](OC(C)=O)C(C)(C)[C@](O)(C[C@@H]4C/C(=C/C(=O)OC)C[C@H](/C=C/C(C)(C)[C@]1(O)O2)O4)O3 [Bryostatin 1] | 0 | 0 | 17.2 | 3.3
41 | O=C(Nc1ccc(-c2ccnc(Nc3ccc(N4CCOCC4)cc3)n2)cc1)C1CCCN1 (configuration not stated) [XL019] | 0 | 0 | 0 | 0.6
42 | O=C(CCBr)N1CCN(C(=O)CCBr)CC1 [Pipobroman] | 0 | 0 | 0 | 0

Row | SMILES | drug sensitivity score ([1]; shRNA: shPPFIA1_1) [DSS] | drug sensitivity score ([1]; shRNA: shScramble) [DSS] | drug sensitivity score ([2]; shRNA: shPPFIA1_1) [DSS] | drug sensitivity score ([2]; shRNA: shScramble) [DSS]
43 | CCc1cnn2c(NCc3ccc[n+]([O-])c3)cc(N3CCCC[C@H]3CCO)nc12 [Dinaciclib] | 15.4 | 8.8 | 13.8 | 18.7
44 | CC(=O)O[C@H]1C(=O)[C@@]2(C)[C@H]([C@H](OC(=O)c3ccccc3)[C@]3(O)C[C@H](OC(=O)[C@H](O)[C@@H](NC(=O)c4ccccc4)c4ccccc4)C(C)=C1C3(C)C)[C@]1(OC(C)=O)CO[C@@H]1C[C@@H]2O [Paclitaxel] | 8.8 | 9.2 | 0 | 12.8
45 | CC1CCC(n2c3cnccc3c3cnc(Nc4ccc5c(n4)CCN(C(=O)CO)C5)nc32)CC1 (configuration not stated) [AMG-925] | 0 | 0 | 0 | 0
46 | CCn1c(-c2nonc2N)nc2cnc(Oc3cccc(NC(=O)c4ccc(OCCN5CCOCC5)cc4)c3)cc21 | 0 | 0 | 0 | 1.5
47 | CC(C)c1cc(C(=O)N2Cc3ccc(CN4CCN(C)CC4)cc3C2)c(O)cc1O [Onalespib] | 0 | 2.6 | 13.6 | 10.6
48 | CNC(=O)c1ccccc1Sc1ccc2c(/C=C/c3ccccn3)n[nH]c2c1 [Axitinib] | 0 | 0 | 0 | 0.2
49 | O=[N+]([O-])c1ccc2c(c1)S(=O)(=O)C=C2 [Stattic] | 4.4 | 7.2 | 6.6 | 9.4
50 | Cn1cc(C[C@@H](N)C(=O)O)c2ccccc21 [1-methyl-D-tryptophan] | 0 | 0 | 0 | 0.9
51 | Nc1nccc(-c2c(-c3ccc(F)cc3)ncn2C2CCCCC2)n1 | 0 | 0 | 0 | 0
52 | CC(C)C(=O)Nc1ccc([N+](=O)[O-])c(C(F)(F)F)c1 [Flutamide] | 0 | 0 | 0 | 0.3
53 | O=C(Nc1nc2cccc(-c3ccc(CN4CCS(=O)(=O)CC4)cc3)n2n1)C1CC1 [Filgotinib] | 0 | 0 | 0 | 0.2
54 | CCN(CC)CCCC(C)Nc1ccnc2cc(Cl)ccc12 (configuration not stated) [Chloroquine] | 5.2 | 7.2 | 8.7 | 9.4
55 | N.N.[Cl][Pt][Cl] [Cisplatin] | 4 | 3.5 | 2 | 7.6
56 | C=CC(=O)Nc1cccc(Nc2nc(Nc3ccc(OCCOC)cc3)ncc2F)c1 [Spebrutinib] | 0 | 0 | 0 | 0.4
57 | C[C@@]1(C(=O)Nc2ccc(F)nc2)CCCN1c1nc(Nc2cc(C3CC3)n[nH]2)c2cccn2n1 | 0.8 | 0 | 0.2 | 3.7
58 | CN(C)c1cc2c(cc1Sc1nc3c(N)nccc3n1CCNCC(C)(C)C)OCO2 [CUDC-305] | 3.4 | 3.4 | 8.7 | 13.6
59 | C=CCN(/C=C1/C(=O)O[C@H](COC)[C@@]2(C)C1=C(O)C(=O)C1=C2[C@H](OC(C)=O)C[C@]2(C)C(=O)CC[C@@H]12)CC=C [Sonolisib] | 0 | 0 | 0 | 0
60 | COc1cc(N2CCN(C)CC2)ccc1Nc1nccc(-c2cn(C)c3cnccc23)n1 [AZ191] | 0 | 2.9 | 3.6 | 6.8
61 | CCOc1cc2ncc(C#N)c(Nc3ccc(F)c(Cl)c3)c2cc1NC(=O)/C=C/CN(C)C [Pelitinib] | 2.7 | 0 | 14.9 | 21.1
62 | C=CC(=O)N1CCC[C@@H](n2nc(-c3ccc(Oc4ccccc4)cc3)c3c(N)ncnc32)C1 [Ibrutinib] | 0 | 0 | 0 | 0
63 | C=CC(=O)Nc1cccc(Nc2nc(Nc3ccc(N4CCN(C(C)=O)CC4)cc3OC)ncc2C(F)(F)F)c1 [Rociletinib] | 0 | 0 | 0 | 2.8
